Measured values from ChEMBL document CHEMBL5046251, “Discovery of a Series of Pyrimidine Carboxamides as Inhibitors of Vanin-1” (J Med Chem, 2022).
Activity calls are given as the source filed them. The calls are words filed in the database; no cut-off is given here.

Key:
[1] = Plasma protein binding in human assessed as unbound fraction; format: ADME, cell-free
[2] = Oral bioavailability in rat at 10 mg/kg measured upto 24 hrs by LC-MS/MS analysis; format: ADME, organism-based; conditions: in vivo
[3] = AUC in rat at 2 mg/kg, iv measured upto 24 hrs by LC-MS/MS analysis; format: ADME, organism-based; set-up: route intravenous, dose 2 mg/kg, time <=24; conditions: in vivo
[4] = Intrinsic clearance in human liver microsomes; format: ADME, Microsome
[5] = Plasma protein binding in mouse assessed as unbound fraction; format: ADME, cell-free
[6] = Volume of distribution in rat at 2 mg/kg, iv measured upto 24 hrs by LC-MS/MS analysis; format: ADME, organism-based; conditions: in vivo
[7] = Intrinsic clearance in human hepatocytes assessed per million cells; format: ADME, cell-based, Hepatocyte
[8] = Intrinsic clearance in rat hepatocytes assessed per million cells; format: ADME, cell-based, Hepatocyte
[9] = Oral bioavailability in beagle dog; format: ADME, organism-based, Canis lupus familiaris; conditions: in vivo
[10] = Intrinsic clearance in human hepatocytes assessed per million cells by relay assay method; format: ADME, cell-based, Hepatocyte
[11] = AUC in rat at 10 mg/kg, po measured upto 24 hrs by LC-MS/MS analysis; format: ADME, organism-based; set-up: route oral, dose 10 mg/kg, time <=24; conditions: in vivo
[12] = Half life in rat at 2 mg/kg, iv measured upto 24 hrs by LC-MS/MS analysis; conditions: in vivo
[13] = Clearance in rat at 2 mg/kg, iv measured upto 24 hrs by LC-MS/MS analysis; format: ADME, organism-based; conditions: in vivo
[14] = Renal clearance in rat at 2 mg/kg, iv assessed glomerular filtration rate; format: ADME, organism-based; conditions: in vivo
[15] = system: Mus musculus; assay: Anti-colitis activity against DSS-induced BALB/c mouse model assessed as increase in body weight at 0.5 to 50 mg/kg, po, qd administered for 10 days; format: functional, organism-based; conditions: dose 0.5-50 mg/kg, time 10.0 day
[16] = system: Mus musculus; assay: Anti-colitis activity against DSS-induced BALB/c mouse model assessed as reduction in disease activity index at 0.5 to 50 mg/kg, po, qd administered for 10 days; format: functional, organism-based; conditions: dose 0.5-50 mg/kg, time 10.0 day
[17] = Inhibition of beagle dog vanin-1
[18] = system: CYP2A4; assay: Inhibition of CYP2A4 (unknown origin) at 3 uM relative to control; format: ADME; conditions: human
[19] = Plasma protein binding in Wistar han rat assessed as unbound fraction; format: ADME, cell-free
[20] = Plasma protein binding in beagle dog assessed as unbound fraction; format: ADME, cell-free, Canis lupus familiaris
[21] = Clearance in beagle dog by LC-MS/MS analysis; format: ADME, Canis lupus familiaris; conditions: in vivo
[22] = Volume of distribution at steady state in beagle dog by LC-MS/MS analysis; format: ADME, Canis lupus familiaris; conditions: in vivo, read-out: Vdss
[23] = Half life in beagle dog by LC-MS/MS analysis; conditions: in vivo
[24] = Renal clearance in beagle dog assessed as glomerular filtration rate; format: ADME, Canis lupus familiaris; conditions: in vivo
[25] = system: Mus musculus; assay: In vivo inhibition of vanin-1 in DSS-induced BALB/c mouse colitis model serum administered for 10 days; format: functional, organism-based; conditions: dose 0.5-50 mg/kg, time 10.0 day
[26] = Unbound drug concentration in serum of DSS-induced BALB/c mouse colitis model at 0.5 mg/kg administered for 10 days; format: ADME, organism-based; conditions: in vivo, 240 h, time 10 day
[27] = Unbound drug concentration in serum of DSS-induced BALB/c mouse colitis model at 1.5 mg/kg administered for 10 days; format: ADME, organism-based; conditions: in vivo, 240 h, time 10 day
[28] = Unbound drug concentration in serum of DSS-induced BALB/c mouse colitis model at 5 mg/kg administered for 10 days; format: ADME, organism-based; conditions: in vivo, 240 h, time 10 day
[29] = Unbound drug concentration in serum of DSS-induced BALB/c mouse colitis model at 50 mg/kg administered for 10 days; format: ADME, organism-based; conditions: in vivo, 240 h, time 10 day

fraction unbound [1]: 0.812
bioavailability [2]: 96%
AUC at 24 h [3]: 1790 ng·h/mL
Intrinsic clearance [4]: < 8 µL/min/mg
fraction unbound [5]: 0.941
Vd [6]: 0.84 L/kg
CLint [7]: < 3 µL/min/1e6 cells
CLint [8]: < 3 µL/min/1e6 cells
bioavailability [9]: 100%
CLint [10]: < 0.16 µL/min/1e6 cells
AUC at 24 h [11]: 8540 ng·h/mL
half-life at 24 h [12]: 1 h
clearance [13]: 19 mL/min/kg
CL [14]: 55%
IC50 [17]: 0.9 nM
inhibition at 3 µM [18]: < 5%
fraction unbound [19]: 0.812
fraction unbound [20]: 0.826
clearance [21]: 3.5 mL/min/kg
Vd [22]: 0.94 L/kg
half-life [23]: 3.4 h
CL [24]: 22%
Drug uptake(free) [26]: 1 nM
Drug uptake(free) [27]: 61 nM
Drug uptake(free) [28]: 202 nM
Drug uptake(free) [29]: 773 nM
SMILES: O=C(c1cnc(NCc2cnccn2)nc1)N1CCC2(CCOCC2)C1 [PFI-653]
Activity [15]: Active
Activity [16]: Active
Activity [25]: Dose-Dependent Effect
